Experimental data as given in patent EP4635944A1, “2-AZABICYCLO[3.1.1]HEPTANE COMPOUND” (Daiichi Sankyo Company, Limited, priority 2022, dated 2024).

Target: T1, human OX2R (Homo sapiens, UniProt O43614)
T1 construct: host or cells: CHO-K1 (Chinese Hamster Ovary K1)
T1 sequence (O43614 1-444): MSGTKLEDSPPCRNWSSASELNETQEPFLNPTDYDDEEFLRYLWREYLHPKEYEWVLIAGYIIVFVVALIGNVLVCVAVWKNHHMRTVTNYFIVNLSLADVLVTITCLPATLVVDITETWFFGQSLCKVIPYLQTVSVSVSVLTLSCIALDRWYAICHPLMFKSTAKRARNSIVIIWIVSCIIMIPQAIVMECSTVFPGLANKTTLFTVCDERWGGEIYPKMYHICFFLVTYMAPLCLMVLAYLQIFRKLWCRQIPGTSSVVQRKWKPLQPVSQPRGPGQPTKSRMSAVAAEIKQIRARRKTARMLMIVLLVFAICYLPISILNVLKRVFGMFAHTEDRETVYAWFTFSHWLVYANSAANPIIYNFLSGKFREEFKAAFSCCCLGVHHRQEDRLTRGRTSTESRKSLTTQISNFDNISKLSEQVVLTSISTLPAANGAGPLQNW
Experiment: Evaluation of OX2R agonist activity (intracellular calcium, CHO-K1 cells with forced expression of human OX2R)
Assay type: cell-based
Settings: CHO-K1 cells expressing human OX2R; 100% = 5 µM of the reference compound; read-out: hOX2R EC50
Method: Evaluation of OX2R agonist activity
Chinese Hamster Ovary K1 (CHO-K1) cells (GenScript) with forced expression of human OX2R were seeded onto a 384 well microplate (Corning) at 7500 cells/well and cultured for 24 hours. 20 µL of the loading buffer (25 mM HEPES containing 1.25 mM of Probenecid and 2.5 µg/mL of Fluo 4-AM at final concentration, Hank's balanced salt solution, 0.06% Pluronic F-127, Quenching buffer) in the Calcium Kit II (DOJINDO LABORATORIES) was added, and the microplate was allowed to stand for 30 minutes. A reference compound (Example435 of WO 2019/027058, N-[(2S,3S)-2-[[3-(3,5-difluorophenyl)-2-fluoro-phenyl]methyl]-1-(2-hydroxy-2-methylpropanoyl)pyrrolidin-3-yl]ethanesulfonamide) or the test compound was added in 10 µL, and changes in intracellular calcium ion concentration were measured using FDSS7000EX (Hamamatsu Photonics K.K.) as a fluorescence intensity ratio obtained upon dual wavelength excitation at 480 nm and 540 nm. Note that the reference compound or test compound was dissolved in DMSO (final concentration of DMSO was 0.5%) and diluted with an assay buffer (20 mM HEPES, Hank's balanced salt solution, 0.1% BSA). The difference between the maximum and minimum fluorescence values between 5 and 7 seconds after the addition of the test compound or reference compound was used as the indicator. The value of wells to which the assay buffer containing no test compound was added was defined as 0%, and the value of wells to which 5 µM of the reference compound was added was defined as 100%. The 50% effective concentration (EC50 value) was determined from the values obtained when various concentrations of the test compound were added. […]

| Compound | EC50 |
| --- | --- |
| CC(C)(O)C(=O)N1C2CC(C2)[C@H](NS(C)(=O)=O)[C@@H]1Cc1cccc(-c2cc(F)cc(F)c2)c1F (single isomer, unassigned) [Example 1] | 0.067 µM |
| CN(C)S(=O)(=O)N[C@H]1C2CC(C2)N(C(=O)C(C)(C)O)[C@H]1Cc1cccc(-c2cc(F)cc(F)c2)c1F (single isomer, unassigned) [Example 2] | 0.089 µM |
| CCS(=O)(=O)N[C@H]1C2CC(C2)N(C(=O)C(C)(C)O)[C@H]1Cc1cccc(-c2cc(F)cc(F)c2)c1F (single isomer, unassigned) [Example 3] | 0.092 µM |
| CC(C)S(=O)(=O)N[C@H]1C2CC(C2)N(C(=O)C(C)(C)O)[C@H]1Cc1cccc(-c2cc(F)cc(F)c2)c1F (single isomer, unassigned) [Example 4] | 0.225 µM |
| CCS(=O)(=O)NC1C2CC(C2)N(C(=O)C23CC(C2)C3)C1Cc1cccc(-c2cc(F)cc(F)c2)c1F (single isomer, unassigned) [Example 5, N-{2-(Bicyclo[1.1.1]pentan-1-ylcarbonyl)-3-[(2,3',5'-trifluoro[biphenyl]-3-yl)methyl]-2-azabicyclo[3.1.1]heptan-4-yl}ethanesulfonamide] | 0.239 µM |
| CC(C)(O)C(=O)N1C2CC(C2)C(NS(=O)(=O)CF)C1Cc1cccc(-c2cc(F)cc(F)c2)c1F (single isomer, unassigned) [Example 6, 1-Fluoro-N-{2-(2-hydroxy-2-methylpropanoyl)-3-[(2,3',5'-trifluoro[biphenyl]-3-yl)methyl]-2-azabicyclo[3.1.1]heptan-4-yl}methanesulfonamide] | 0.069 µM |
| CCS(=O)(=O)NC1C2CC(C2)N(C(=O)N(C)C)C1Cc1cccc(-c2cc(F)cc(F)c2)c1F (single isomer, unassigned) [Example 7, 4-[(Ethylsulfonyl)amino]-N,N-dimethyl-3-[(2,3',5'-trifluoro[biphenyl]-3-yl)methyl]-2-azabicyclo[3.1.1]heptane-2-carboxamide] | 0.213 µM |
| CCS(=O)(=O)NC1C2CC(C2)N(C(=O)N2CCC2)C1Cc1cccc(-c2cc(F)cc(F)c2)c1F (single isomer, unassigned) [Example 9, N-{2-(Azetidin-1-ylcarbonyl)-3-[(2,3',5'-trifluoro[biphenyl]-3-yl)methyl]-2-azabicyclo[3.1.1]heptan-4-yl}ethanesulfonamide] | 0.089 µM |
| CC(C)(O)C(=O)N1C2CC(F)(C2)C(NS(C)(=O)=O)C1Cc1cccc(-c2cc(F)cc(F)c2)c1F (single isomer, unassigned) [Example 12, N-{5-Fluoro-2-(2-hydroxy-2-methylpropanoyl)-3-[(2,3',5'-trifluoro[biphenyl]-3-yl)methyl]-2-azabicyclo[3.1.1]heptan-4-yl}methanesulfonamide] | 0.027 µM |
| CC(C)(O)C(=O)N1C2CC(C2)C(NS(C)(=O)=O)C1Cc1cccc(-c2cc(F)cc(F)c2)c1 (single isomer, unassigned) [Example 13, N-{3-[(3',5'-Difluoro[biphenyl]-3-yl)methyl]-2-(2-hydroxy-2-methylpropanoyl)-2-azabicyclo[3.1.1]heptan-4-yl}methanesulfonamide] | 1.14 µM |
| CS(=O)(=O)NC1C2CC(C2)N(C(=O)C2CC2)C1Cc1ccnc(-c2cc(F)cc(F)c2)c1F (single isomer, unassigned) [Example 22, N-[2-(Cyclopropylcarbonyl)-3-{[2-(3,5-difluorophenyl)-3-fluoropyridin-4-yl]methyl}-2-azabicyclo[3.1.1]heptan-4-yl]methanesulfonamide] | 0.08 µM |
| C[C@@H](O)C(=O)N1C2CC(F)(C2)C(NS(C)(=O)=O)C1Cc1cccc(-c2cc(F)cc(F)c2)c1F (single isomer, unassigned) [Example 23, N-{(3S,4R)-5-Fluoro-2-[(2R)-2-hydroxypropanoyl]-3-[(2,3',5'-trifluoro[biphenyl]-3-yl)methyl]-2-azabicyclo[3.1.1]heptan-4-yl}methanesulfonamide or N-{(3R,4S)-5-fluoro-2-[(2R)-2-hydroxypropanoyl]-3-[(2,3',5'-trifluoro[biphenyl]-3-yl)methyl]-2-azabicyclo[3.1.1]heptan-4-yl}methanesulfonamide] | 0.034 µM |
